In brackets after ≈: the same amount, converted by molar mass.
Columns and labels:
[1] = Cytotoxicity against human MCF7/ADR cells assessed as ratio of drug concentration to drug ED100 at 1.0 ug/ml after 6 days by BCA assay; assay type: functional, NCI/ADR-RES
[2] = Cytotoxicity against human MCF7/ADR cells assessed as ratio of drug concentration to drug ED100 at 0.8 ug/ml after 6 days by BCA assay; assay type: functional, NCI/ADR-RES
[3] = Cytotoxicity against human MCF7/ADR cells assessed as ratio of drug concentration to drug ED100 at 0.15 ug/ml after 6 days by BCA assay; assay type: functional, NCI/ADR-RES
[4] = Cytotoxicity against human MCF7/ADR cells assessed as ratio of drug concentration to drug ED100 at 0.3 ug/ml after 6 days by BCA assay; assay type: functional, NCI/ADR-RES
[5] = Cytotoxicity against human MCF7/ADR cells assessed as ratio of drug concentration to drug ED100 at 0.6 ug/ml after 6 days by BCA assay; assay type: functional, NCI/ADR-RES
[6] = Cytotoxicity against human MCF7/ADR cells; assay type: functional; settings: NCI/ADR-RES, read-out: ED50 (the source's name)
MCF/ADR [7] = assay: Reversal of P-gp-mediated multidrug resistance in human MCF/ADR cells assessed as ratio of doxorubicin ED50 without drug to doxorubicin ED50 with drug at 0.3 ug/ml after 6 days by BCA assay; assay type: cell-based
MCF/ADR [8] = assay: Reversal of P-gp-mediated multidrug resistance in human MCF/ADR cells assessed as ratio of doxorubicin ED50 without drug to doxorubicin ED50 with drug at 1.0 ug/ml after 6 days by BCA assay; assay type: cell-based
MCF/ADR [9] = assay: Reversal of P-gp-mediated multidrug resistance in human MCF/ADR cells assessed as ratio of doxorubicin ED50 without drug to doxorubicin ED50 with drug at 1.15 ug/ml after 6 days by BCA assay; assay type: cell-based
MCF/ADR [10] = assay: Reversal of P-gp-mediated multidrug resistance in human MCF/ADR cells assessed as ratio of doxorubicin ED50 without drug to doxorubicin ED50 with drug at 0.6 ug/ml after 6 days by BCA assay; assay type: cell-based
MCF/ADR [11] = assay: Reversal of P-gp-mediated multidrug resistance in human MCF/ADR cells assessed as ratio of doxorubicin ED50 without drug to doxorubicin ED50 with drug at 0.8 ug/ml after 6 days by BCA assay; assay type: cell-based
[12] = Cytotoxicity against human MCF7/ADR cells assessed as ratio of drug concentration to drug ED100 at 6 ug/ml after 6 days by BCA assay; assay type: functional, NCI/ADR-RES
[13] = Cytotoxicity against human MCF7/ADR cells assessed as ratio of drug concentration to drug ED100 at 3 ug/ml after 6 days by BCA assay; assay type: functional, NCI/ADR-RES
[14] = Cytotoxicity against human MCF7/ADR cells assessed as ratio of drug concentration to drug ED100 at 1.5 ug/ml after 6 days by BCA assay; assay type: functional, NCI/ADR-RES
[15] = Cytotoxicity against human MCF7/ADR cells assessed as ratio of drug concentration to drug ED100 at 10 ug/ml after 6 days by BCA assay; assay type: functional, NCI/ADR-RES
[16] = Cytotoxicity against human MCF7/ADR cells assessed as ratio of drug concentration to drug ED100 at 8 ug/ml after 6 days by BCA assay; assay type: functional, NCI/ADR-RES

| Structure (SMILES) | Activity [1] | Activity [2] | Activity [3] | Activity [4] | Activity [5] | EC50 [6] | Ratio ED50 (MCF/ADR [7]) | Ratio ED50 (MCF/ADR [8]) | Ratio ED50 (MCF/ADR [9]) | Ratio ED50 (MCF/ADR [10]) | Ratio ED50 (MCF/ADR [11]) | Activity [12] | Activity [13] | Activity [14] | Activity [15] | Activity [16] | Activity (MCF/ADR [7]) | Activity (MCF/ADR [8]) | Activity (MCF/ADR [10]) | Activity (MCF/ADR [11]) |
| --- | --- | --- | --- | --- | --- | --- | --- | --- | --- | --- | --- | --- | --- | --- | --- | --- | --- | --- | --- | --- |
| COc1ccc2cc1Oc1ccc(cc1)C[C@H]1c3c(cc(OC)c4c3Oc3cc5c(cc3O4)CCN(C)[C@H]5C2)CCN1C [ISOTRILOBINE] | 0.2 | 0.16 | 0.03 | 0.06 | 0.12 | 2 µg/mL (≈ 3.47 µM) | 10 | 70 | 5 | 32 | 57 | – | – | – | – | – | – | – | – | – |
| COc1ccc(CCN(C)CCCC(C#N)(c2ccc(OC)c(OC)c2)C(C)C)cc1OC (stereo not given) [VERAPAMIL] | – | – | – | – | – | – | – | – | – | – | – | 0.12 | 0.06 | 0.03 | 0.19 | 0.15 | – | – | – | – |
| COc1ccc2cc1Oc1ccc(cc1)C[C@@H]1NCCc3cc(OC)c4c(c31)Oc1cc3c(cc1O4)CCN(C)[C@H]3C2 [TRILOBINE] | 0.17 | 0.13 | – | 0.05 | 0.1 | 1 µg/mL (≈ 1.78 µM) | – | – | – | – | – | – | – | – | – | – | 1 | 2 | 1.5 | 2 |
